# Target: T1, ERK2 enzyme (Homo sapiens, UniProt P28482)
# T1 construct: purchased Life Technologies
# Assay: Inhibition assay of ERK (Z'-LYTE kinase assay, Ser/Thr 3 peptide, 100 μM ATP)
# Assay type: biochemical
# Settings: in vitro
# Protocol: Example 9: Inhibition Assays of ERK. The inhibition of ERK activity by the compounds disclosed herein was determined using the Z′-LYTE kinase assay kit (Life Technologies) with a Ser/Thr 3 peptide substrate (Life Technologies) according to manufacturer's instructions. […] The IC50 values for the compounds were determined with 3-fold serial dilutions in duplicate. The compounds were first diluted in 1:3 dilutions in 100% DMSO at 100× the desired concentration, and then further diluted (1:25) in 20 mM HEPES buffer (Invitrogen) to make 4× solutions prior to adding to the enzyme solution. The final DMSO concentration in the assay was 1%. Final reaction volume was […] in 384-well plates. Kinase reactions were conducted for 1 hour followed by the assay development reaction (1 hour) in a 384 well plate format (20 μL/well).
# T1 sequence (P28482 whole entry): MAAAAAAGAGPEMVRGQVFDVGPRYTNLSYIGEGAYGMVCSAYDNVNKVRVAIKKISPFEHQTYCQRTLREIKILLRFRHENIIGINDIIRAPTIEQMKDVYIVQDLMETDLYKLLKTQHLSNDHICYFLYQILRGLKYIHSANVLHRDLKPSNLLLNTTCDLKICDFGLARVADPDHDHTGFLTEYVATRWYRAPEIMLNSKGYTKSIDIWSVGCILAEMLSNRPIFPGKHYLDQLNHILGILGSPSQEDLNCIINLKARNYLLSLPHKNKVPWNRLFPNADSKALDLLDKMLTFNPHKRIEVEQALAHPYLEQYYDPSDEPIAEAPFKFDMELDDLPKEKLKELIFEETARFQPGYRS
row,Compound,IC50 [µM]
1,Cc1cc(-c2n[nH]c3cc4c(cc23)CN(Cc2cccc(Cl)c2)C(=O)N4)ccn1 [Compound 4],< 0.5
2,Cc1cc(-c2n[nH]c3cc4c(cc23)CN(CCNCc2ccccc2)C(=O)N4)ccn1 [Compound 149],< 0.5
3,Cc1cc(-c2n[nH]c3cc4[nH]c(=O)c(C5CCCN(Cc6ccccc6)C5)cc4cc23)ccn1 (stereo not shown) [Compound 332],< 0.5
4,CC(c1ccccc1)c1cc2cc3c(NC4CCOCC4)n[nH]c3cc2[nH]c1=O (stereo not shown) [Compound 338],< 0.5
5,C[C@H](c1ccccc1)c1cc2cc3c(NC4CCOCC4)n[nH]c3cc2[nH]c1=O [Compound 357],< 0.5
6,Cc1cc(-c2n[nH]c3cc4[nH]c(=O)c([C@H](C)c5ccccc5)cc4cc23)ccn1 [Compound 84],< 0.5
7,Cc1cc(-c2n[nH]c3cc4c(cc23)CN([C@@H]2CCCN(Cc3cc(F)ccc3F)C2)C(=O)N4)ccn1 [Compound 187],< 0.5
8,Cc1cc(-c2n[nH]c3cc4c(cc23)CN([C@@H]2CCCN(Cc3cccc(F)c3F)C2)C(=O)N4)ccn1 [Compound 185],< 0.5
9,Cc1cc(-c2n[nH]c3cc4c(cc23)CN(CC2CCCC2)C(=O)N4)ccn1 [Compound 212],< 0.5
10,Cn1ccc(-c2n[nH]c3cc4c(cc23)CN([C@@H]2CCCN(Cc3ccc(F)cc3F)C2)C(=O)N4)c1 [Compound 281],< 0.5
11,COc1ncc(-c2n[nH]c3cc4c(cc23)CN([C@@H]2CCCN(Cc3c(F)cccc3OC)C2)C(=O)N4)cn1 [Compound 103],< 0.5
12,CC(c1ccccc1)c1cc2cc3c(-c4ccnc(N5CCN(C)CC5)c4)n[nH]c3cc2[nH]c1=O (stereo not shown) [Compound 318],< 0.5
13,Cc1cc(-c2n[nH]c3cc4c(cc23)CN([C@@H]2CCCN(CC(F)(F)F)C2)C(=O)N4)cc(C)n1 [Compound 244],< 0.5
14,[2H]c1c([2H])c([2H])c(C([2H])([2H])N2CCC[C@@H](N3Cc4cc5c(-c6ccnc(C)c6)n[nH]c5cc4NC3=O)C2)c([2H])c1[2H] [Compound 165],< 0.5
15,Cc1cc(-c2n[nH]c3cc4c(cc23)CN([C@@H]2CCN(CC(F)(F)F)C2)C(=O)N4)ccn1 [Compound 214],< 0.5
16,Cc1cc(-c2n[nH]c3cc4c(cc23)CN(Cc2cc(F)cc(F)c2)C(=O)N4)cc(C)n1 [Compound 225],< 0.5
17,Cc1cc(-c2n[nH]c3cc4c(cc23)CN([C@@H]2CN(CC(F)(F)F)C[C@H]2c2ccccc2)C(=O)N4)ccn1 [Compound 304],< 0.5
18,Cc1cc(-c2n[nH]c3cc4c(cc23)CN(C2CCC2)C(=O)N4)ccn1 [Compound 243],< 0.5
19,Cc1cc(-c2n[nH]c3cc4c(cc23)CN(Cc2cccc(C(F)(F)F)c2)C(=O)N4)ccn1 [Compound 240],< 0.5
20,Cc1cc(-c2n[nH]c3cc4c(cc23)CN([C@@H]2CCCN(Cc3csc(C)c3)C2)C(=O)N4)ccn1 [Compound 251],< 0.5
21,Cc1cc(-c2n[nH]c3cc4[nH]c(=O)c([C@H](C)c5ccc(F)cc5)cc4cc23)ccn1 [Compound 288],< 0.5
22,O=C1Nc2cc3[nH]nc(-c4ccncc4)c3cc2CN1Cc1cccc(Cl)c1 [Compound 3],< 0.5
23,Cc1cc(-c2n[nH]c3cc4c(cc23)CN([C@@H]2CCN(C(C)C(F)(F)F)C2)C(=O)N4)ccn1 (stereo partly shown) [Compound 267],< 0.5
24,CC(c1ccccc1)c1cc2cc3c(-c4ccc(N5CCN(C)CC5)nc4)n[nH]c3cc2[nH]c1=O (stereo not shown) [Compound 316],< 0.5

row,Compound,IC50 [µM]
1,O=C1Nc2cc3[nH]nc(-c4ccncc4)c3cc2CN1Cc1ccccc1 [Compound 1],< 0.5
2,CC(c1ccccc1)c1cc2cc3c(-c4ccnc(N5CCOCC5)c4)n[nH]c3cc2[nH]c1=O (stereo not shown) [Compound 325],< 0.5
3,COc1ncc(-c2n[nH]c3cc4c(cc23)CN(Cc2cccc(Cl)c2)C(=O)N4)cn1 [Compound 68],< 0.5
4,CCN1C[C@@H](N2Cc3cc4c(-c5ccnc(C)c5)n[nH]c4cc3NC2=O)[C@H](c2ccccc2)C1 (racemic) [Compound 278],< 0.5
5,Cc1cc(-c2n[nH]c3cc4c(cc23)CN([C@@H]2CN(CC(F)(F)F)C[C@H]2c2ccccc2)C(=O)N4)cc(C)n1 [Compound 339],< 0.5
6,Cc1cc(-c2n[nH]c3cc4c(cc23)CN(CC2CCCCC2)C(=O)N4)ccn1 [Compound 213],< 0.5
7,COc1cc(-c2n[nH]c3cc4c(cc23)CN([C@@H]2CCCN(Cc3ccc(F)cc3F)C2)C(=O)N4)ccn1 [Compound 271],< 0.5
8,COc1cccc(F)c1CN1CCC[C@@H](N2Cc3cc4c(-c5ccnc(C)c5)n[nH]c4cc3NC2=O)C1 [Compound 144],< 0.5
9,Cc1cc(-c2n[nH]c3cc4c(cc23)CN([C@@H]2CN(C)C[C@H]2c2ccccc2F)C(=O)N4)cc(C)n1 (racemic) [Compound 306],< 0.5
10,Cc1cc(-c2n[nH]c3cc4c(cc23)CN([C@@H]2CN(CC(F)F)C[C@H]2c2ccccc2)C(=O)N4)ccn1 (racemic) [Compound 362],< 0.5
11,Cc1cc(-c2n[nH]c3cc4c(cc23)CN([C@@H]2CCCN(Cc3ccc(F)c(F)c3)C2)C(=O)N4)ccn1 [Compound 190],< 0.5
12,COc1ncc(-c2n[nH]c3cc4[nH]c(=O)c(C5CCCN(Cc6ccccc6)C5)cc4cc23)cn1 (stereo not shown) [Compound 364],< 0.5
13,Cc1cc(-c2n[nH]c3cc4[nH]c(=O)c(C(C)c5ccc(F)cc5)cc4cc23)ccn1 (stereo not shown) [Compound 197],< 0.5
14,CC(c1ccccc1)c1cc2cc3c(-c4cnn(C)c4)n[nH]c3cc2[nH]c1=O (stereo not shown) [Compound 333],< 0.5
15,Cc1ncc(-c2n[nH]c3cc4c(cc23)CN([C@@H]2CCCN(Cc3ccc(F)cc3F)C2)C(=O)N4)cn1 [Compound 293],< 0.5
16,COc1ncc(-c2n[nH]c3cc4c(cc23)CN([C@@H]2CCCN(Cc3c(F)cccc3F)C2)C(=O)N4)cn1 [Compound 102],< 0.5
17,CCC(c1ccccc1)c1cc2cc3c(-c4ccnc(C)c4)n[nH]c3cc2[nH]c1=O (stereo not shown) [Compound 64],< 0.5
18,COc1ccc(-c2n[nH]c3cc4c(cc23)CN([C@@H]2CCCN(Cc3ccc(F)cc3F)C2)C(=O)N4)cn1 [Compound 273],< 0.5
19,Cc1cc(-c2n[nH]c3cc4c(cc23)CN([C@@H]2CCCN(Cc3ccc(C)s3)C2)C(=O)N4)ccn1 [Compound 245],< 0.5
20,CC(c1ccccc1)c1cc2cc3c(-c4ccncc4)n[nH]c3cc2[nH]c1=O (stereo not shown) [Compound 326],< 0.5
21,COc1cccc(F)c1CN1CC[C@@H](N2Cc3cc4c(-c5ccnc(C)c5)n[nH]c4cc3NC2=O)C1 [Compound 162],< 0.5
22,Cc1cc(-c2n[nH]c3cc4[nH]c(=O)c(C(C)c5ccccc5)cc4cc23)ccn1 (stereo not shown) [Compound 22],< 0.5
23,COc1ncc(-c2n[nH]c3cc4c(cc23)CN([C@@H]2CCCN(Cc3ccc(F)cc3F)C2)C(=O)N4)cn1 [Compound 280],< 0.5

# More lines, now with the values ahead:
row,IC50 [µM],Compound
1,< 0.5,Cc1cc(-c2n[nH]c3cc4c(cc23)CN([C@@H]2CCCN(Cc3ccccc3)C2)C(=O)N4)ccn1 [Compound 63]
2,< 0.5,Cc1cc(-c2n[nH]c3cc4c(cc23)CN([C@@H]2CCN(Cc3ccccc3)C2)C(=O)N4)ccn1 [Compound 146]
3,< 0.5,Cc1cc(-c2n[nH]c3cc4c(cc23)CN([C@@H]2CCCN(C(C)c3ccccc3)C2)C(=O)N4)ccn1 (stereo partly shown) [Compound 154]
4,< 0.5,Cc1cc(-c2n[nH]c3cc4c(cc23)CN([C@@H]2CCN(CCc3ccccc3)C2)C(=O)N4)ccn1 [Compound 153]
5,< 0.5,Cc1cc(-c2n[nH]c3cc4c(cc23)CN([C@@H]2CCCN(Cc3ccc(F)c(Cl)c3)C2)C(=O)N4)ccn1 [Compound 134]
6,< 0.5,Cc1ncc(-c2n[nH]c3cc4c(cc23)CN([C@@H]2CCCN(Cc3ccccc3)C2)C(=O)N4)cn1 [Compound 292]
7,< 0.5,Cc1cc(-c2n[nH]c3cc4c(cc23)CN([C@@H]2CCCN(Cc3ccccc3Cl)C2)C(=O)N4)ccn1 [Compound 158]
8,< 0.5,Cc1cc(-c2n[nH]c3cc4c(cc23)CN([C@@H]2CCCN(Cc3cccc(Cl)c3)C2)C(=O)N4)ccn1 [Compound 156]
9,< 0.5,COc1cc(-c2n[nH]c3cc4c(cc23)CN([C@@H]2CCCN(Cc3ccccc3)C2)C(=O)N4)ccn1 [Compound 270]
10,< 0.5,Cc1ccc(-c2n[nH]c3cc4c(cc23)CN([C@@H]2CCCN(Cc3ccccc3)C2)C(=O)N4)cn1 [Compound 275]
11,< 0.5,Cc1cc(-c2n[nH]c3cc4c(cc23)CN([C@@H]2CCCN(Cc3cccs3)C2)C(=O)N4)ccn1 [Compound 254]
12,< 0.5,COc1ncc(-c2n[nH]c3cc4c(cc23)CN([C@@H]2CCCN(Cc3ccccc3F)C2)C(=O)N4)cn1 [Compound 101]
13,< 0.5,COc1ncc(-c2n[nH]c3cc4c(cc23)CN([C@@H]2CCCN(Cc3ccccc3)C2)C(=O)N4)cn1 [Compound 104]
14,< 0.5,Cc1cc(-c2n[nH]c3cc4c(cc23)CN([C@@H]2CCCN(Cc3cccc(F)c3)C2)C(=O)N4)ccn1 [Compound 184]
15,< 0.5,Cc1ccc(-c2n[nH]c3cc4c(cc23)CN([C@@H]2CCCN(Cc3ccc(F)cc3F)C2)C(=O)N4)cn1 [Compound 284]
16,< 0.5,COc1ccc(-c2n[nH]c3cc4c(cc23)CN([C@@H]2CCCN(Cc3ccccc3)C2)C(=O)N4)cn1 [Compound 272]
17,< 0.5,Cc1cc(-c2n[nH]c3cc4c(cc23)CN([C@@H]2CCCN(Cc3ccsc3)C2)C(=O)N4)ccn1 [Compound 252]
18,< 0.5,[2H]C([2H])(c1ccccc1)N1CCC[C@@H](N2Cc3cc4c(-c5ccnc(C)c5)n[nH]c4cc3NC2=O)C1 [Compound 148]
19,< 0.5,Cn1cc(-c2n[nH]c3cc4c(cc23)CN([C@@H]2CCCN(Cc3ccccc3)C2)C(=O)N4)cn1 [Compound 285]
20,< 0.5,Cc1cc(-c2n[nH]c3cc4c(cc23)CN([C@H]2CN(Cc3ccccc3)CC(F)(F)C2)C(=O)N4)ccn1 [Compound 264]

# Reference: US20190192517A1, “TREATMENT OF SQUAMOUS CELL CARCINOMAS WITH INHIBITORS OF ERK” (Kura Oncology, Inc., priority 2016, published 2019)
